Results published in patent US20080026996A1, “Selective Vpac2 Receptor Reptide Agonists” (ELI LILLY AND COMPANY, priority 2004, published 2008).
Where no end group is shown, it is not given here. [ ]: non-standard residue; d: D form. hArg = N=C(N)NCCCC[C@H](N)C(=O)O

Columns and labels:
[1] = biological target: T1, human PAC1 (Homo sapiens, UniProt P41586); assay: DiscoveRx cAMP in vitro potency, CHO-PO cells transiently transfected with human PAC1 receptor; type: cell-based; parameters: expressed in transfected cells; host or cells: CHO-PO, transient (Lipofectamine); conditions: cAMP generation; mean of two independent runs; read-out: Human PAC1 Receptor: DiscoveRx EC50
T1 sequence (P41586 21-468): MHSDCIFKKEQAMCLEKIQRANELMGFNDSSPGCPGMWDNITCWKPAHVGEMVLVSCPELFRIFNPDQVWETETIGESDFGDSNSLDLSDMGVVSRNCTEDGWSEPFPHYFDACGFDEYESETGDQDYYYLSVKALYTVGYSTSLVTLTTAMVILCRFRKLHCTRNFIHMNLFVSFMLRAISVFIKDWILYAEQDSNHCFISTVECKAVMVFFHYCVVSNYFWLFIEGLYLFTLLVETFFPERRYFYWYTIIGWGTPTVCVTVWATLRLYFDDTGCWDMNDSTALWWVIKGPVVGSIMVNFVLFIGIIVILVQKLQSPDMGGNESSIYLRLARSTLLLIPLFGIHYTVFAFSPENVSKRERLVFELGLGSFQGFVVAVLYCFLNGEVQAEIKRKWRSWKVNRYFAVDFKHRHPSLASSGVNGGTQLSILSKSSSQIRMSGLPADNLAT
Procedure: Also, the cells are washed twice. The cells are incubated in assay buffer plus IBMX for 15 minutes at room temperature. […] The stimuli are present for 30 minutes. Then, the assay buffer is gently removed. […] At day 3, the assay described above for the VPAC2 receptor cell line is performed.

[2] = biological target: T2, DPP-IV (Sus scrofa, UniProt P22411); assay: DPP-IV HPLC assay: in vitro incubation with purified dipeptidyl-peptidase IV; type: in vitro ADME, Porcine
T2 construct: purchased Sigma
Procedure: Part 1: Formulation of Selective VPAC2 Receptor Peptide Agonists: […]
Approximately 2 mg of lyophilized peptide is weighed and dissolved in approximately 1.6 mL de-ionized water. […] After incubation at room temperature for 30 minutes, 1/10th of the original volume 10×PBS is added. The pH is adjusted to between pH 7.2 and 7.6. The peptide solution is filtered through a 0.22 μm Millex-GV syringe filter (Millipore, Bedford Mass., USA). The peptide concentration is determined through absorption at 280 nm. The peptide concentration is then adjusted to 100 μM. The peptides are frozen at −20° C. for further use.
Part 2: In Vitro Incubation of Selective VPAC2 Receptor Peptide Agonists with Purified Dipeptidyl-Peptidase IV (DPP-IV):
The stability of selective VPAC2 receptor peptide agonists against proteolysis by DPP-IV is determined using 100 μL of a 100 μM peptide solution in 1×PBS. A 10 μL solution is removed and quenched with 40 μL of 0.1% trifluoroacetic acid (TFA)/20% acetonitrile (ACN). This solution (20 μL) is analyzed by reversed-phase HPLC. The reversed-phase analysis consists of a Zorbax 300SB-C8 column (3.5 micron, 4.6×50 mm, Alltech Associates, Inc., Deerfield Ill., USA) running a 15-40% B gradient over 15 minutes at 60° C. where A-buffer is 0.1% (v/v) TFA in water and B-buffer is 0.085% (v/v) TFA in ACN. The peak area is integrated. This peak area serves as an internal control as 100% intact peptide.
A 10 μL aliquot of a 1.12 mU/μL solution of DPP-IV (Sigma, St. Louis, La., USA) is added to 90 μL of a 100 μM solution of peptide, resulting in a substrate concentration of 90 μM peptide. The reaction mixture is then stored at 37° C. At various time-points, 10 μL of solution is removed, quenched with 40 μL 0.1% TFA/20% ACN, and analyzed by reversed-phase HPLC as described above. The remaining full length peptide concentration (nM) at each timepoint, except time=0, is calculated using following formula: [formula]
For the time=0 timepoint, the concentration (nM) is calculated using the following formula: [formula]

[3] = biological target: T3, human VPAC2 (Homo sapiens, UniProt P41587); assay: Alpha screen cAMP in vitro potency, human VPAC2 receptor; type: cell-based; conditions: cAMP generation; single result from two analyses performed in a single run; read-out: Human VPAC2 Receptor: Alpha Screen EC50
T3 construct: expressed in transfected cells
T3 sequence (P41587 24-438): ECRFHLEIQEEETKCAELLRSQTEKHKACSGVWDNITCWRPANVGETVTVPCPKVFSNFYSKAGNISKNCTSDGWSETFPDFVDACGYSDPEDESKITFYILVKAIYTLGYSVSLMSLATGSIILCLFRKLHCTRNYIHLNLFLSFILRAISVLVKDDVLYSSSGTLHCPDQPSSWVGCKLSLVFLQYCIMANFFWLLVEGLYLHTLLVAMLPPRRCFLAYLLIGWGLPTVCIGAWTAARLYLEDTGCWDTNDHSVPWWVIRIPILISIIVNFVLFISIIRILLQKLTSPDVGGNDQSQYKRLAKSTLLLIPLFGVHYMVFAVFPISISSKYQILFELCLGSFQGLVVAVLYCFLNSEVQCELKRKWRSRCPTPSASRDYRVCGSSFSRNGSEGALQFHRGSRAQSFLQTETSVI
Method in brief: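 Dissociated cells, 50,000 per point in stimulation buffer, were incubated with stimuli and AlphaScreen acceptor beads for 60 min.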

[4] = biological target: T3, human VPAC2; assay: Filter binding assay, membranes of stable VPAC2 cell line, 125I-labeled VIP tracer (Table 2); conditions: read-out: Human VPAC2 Receptor Binding
Method in brief: (§1)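 Competition binding of agonists against radiotracer on receptor membranes (2.5 μg) in 25 mM HEPES pH 7.4 with 0.5% protease-free BSA, about 40000 cpm tracer, 1 hour with shaking. Bound tracer was separated by filtration on PEI-presoaked, BSA-blocked glass-fibre filters, washed and counted by scintillation.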

[5] = Rat serum stability studies (remaining active peptide by DiscoveRx cAMP on CHO-VPAC2 cells); type: in vitro ADME
Method in brief: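 Rat serum, 18 h: +aprotinin aliquot at 4° C, no-aprotinin aliquot at 37° C. Then 30 min RT step, supernatant removed, 1 h shaking at 300 rpm. DiscoveRx cAMP kit on CHO-VPAC2; EC50 from cAMP data vs standards.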

[6] = biological target: T4, human VPAC1 (Homo sapiens, UniProt P32241); assay: Filter binding assay, membranes of cells transiently transfected with human VPAC1, 125I-labeled VIP tracer (Table 2); parameters: expressed in transfected cells; conditions: read-out: Human VPAC1 Receptor Binding
T4 sequence (P32241 31-457): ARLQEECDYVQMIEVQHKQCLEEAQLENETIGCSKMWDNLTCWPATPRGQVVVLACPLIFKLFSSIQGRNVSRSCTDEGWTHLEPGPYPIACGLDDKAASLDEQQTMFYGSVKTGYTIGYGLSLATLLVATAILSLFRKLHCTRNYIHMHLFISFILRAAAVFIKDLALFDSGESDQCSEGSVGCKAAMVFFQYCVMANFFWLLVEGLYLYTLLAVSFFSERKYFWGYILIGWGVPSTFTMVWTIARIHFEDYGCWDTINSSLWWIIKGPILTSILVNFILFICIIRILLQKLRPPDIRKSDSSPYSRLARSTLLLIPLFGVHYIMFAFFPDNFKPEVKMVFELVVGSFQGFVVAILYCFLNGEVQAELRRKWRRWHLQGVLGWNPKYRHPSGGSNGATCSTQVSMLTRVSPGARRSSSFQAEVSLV
Method in brief: as §1

[7] = biological target: T1, human PAC1; assay: Filter binding assay, membranes of cells transiently transfected with human PAC1, 125I-labeled PACAP-27 tracer (Table 2); parameters: expressed in transfected cells; conditions: read-out: Human PAC1 Receptor Binding
Method in brief: as §1

[8] = biological target: T5, rat VPAC2 receptor (Rattus norvegicus, UniProt P35000); assay: DiscoveRx in vitro potency, CHO-PO cells transiently transfected with rat VPAC 2 receptor DNA; type: cell-based; parameters: expressed in transfected cells; host or cells: CHO-PO, transient
T5 sequence (P35000 23-437): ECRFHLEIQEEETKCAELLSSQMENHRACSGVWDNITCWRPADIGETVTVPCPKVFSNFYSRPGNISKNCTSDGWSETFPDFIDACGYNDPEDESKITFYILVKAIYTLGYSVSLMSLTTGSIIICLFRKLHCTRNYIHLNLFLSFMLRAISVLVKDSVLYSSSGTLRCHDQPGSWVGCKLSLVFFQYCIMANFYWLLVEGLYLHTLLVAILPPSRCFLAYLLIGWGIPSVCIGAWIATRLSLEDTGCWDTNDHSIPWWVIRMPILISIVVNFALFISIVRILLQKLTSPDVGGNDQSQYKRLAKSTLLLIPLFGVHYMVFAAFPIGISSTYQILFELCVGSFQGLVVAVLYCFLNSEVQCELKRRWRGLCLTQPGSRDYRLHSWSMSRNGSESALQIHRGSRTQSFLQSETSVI
Procedure: Also, the cells are washed twice. […] The stimuli are present for 30 minutes. Then, the assay buffer is gently removed.

T2 sequence (P22411 whole entry): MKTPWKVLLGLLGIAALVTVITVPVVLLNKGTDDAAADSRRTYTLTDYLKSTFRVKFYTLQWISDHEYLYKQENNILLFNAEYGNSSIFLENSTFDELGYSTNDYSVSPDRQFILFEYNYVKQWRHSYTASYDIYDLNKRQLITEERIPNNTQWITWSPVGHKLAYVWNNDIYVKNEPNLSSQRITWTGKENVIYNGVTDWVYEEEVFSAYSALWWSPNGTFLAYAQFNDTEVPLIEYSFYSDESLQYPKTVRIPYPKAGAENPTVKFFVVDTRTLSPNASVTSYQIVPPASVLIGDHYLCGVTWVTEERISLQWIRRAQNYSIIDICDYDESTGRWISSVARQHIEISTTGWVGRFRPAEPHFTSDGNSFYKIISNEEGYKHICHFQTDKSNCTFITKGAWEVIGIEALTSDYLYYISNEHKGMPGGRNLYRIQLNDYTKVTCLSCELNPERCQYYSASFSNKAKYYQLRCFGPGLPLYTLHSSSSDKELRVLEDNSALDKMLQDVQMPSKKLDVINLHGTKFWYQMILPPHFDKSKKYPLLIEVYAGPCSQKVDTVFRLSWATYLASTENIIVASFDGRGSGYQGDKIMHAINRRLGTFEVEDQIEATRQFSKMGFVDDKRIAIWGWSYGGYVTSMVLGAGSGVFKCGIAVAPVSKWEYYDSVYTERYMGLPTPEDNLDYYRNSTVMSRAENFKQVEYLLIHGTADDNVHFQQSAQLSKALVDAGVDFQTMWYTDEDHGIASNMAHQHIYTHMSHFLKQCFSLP

**Q.** Which EC50 [1] does the source give for “HGDAVFTDNYTRLRKQVAAKKYLQSIKNKRYGGPSSGAPPPS [Agonist P43]” here?
**A.** Its EC50 is 104 nM.

**Q.** Which “Concentration (nM) of Remaining Main Peak by RP-HPLC after Incubation of Peptide with Purified Porcine DPP-IV” value ([2]; Time = 0 hours at 37° C.) does the source give for “MHSDAVFTDNYTRLRKQVAAKKYLQSIKNKRYGGPSSGAPPPS [VPAC2-P104]” here?
**A.** Its value is 9.0 nM.

**Q.** And the “Concentration (nM) of Remaining Main Peak by RP-HPLC after Incubation of Peptide with Purified Porcine DPP-IV” value ([2]; Time = 2 hours at 37° C.)?
**A.** The value was 7.8 nM.

**Q.** And the “Concentration (nM) of Remaining Main Peak by RP-HPLC after Incubation of Peptide with Purified Porcine DPP-IV” value ([2]; Time = 6 hours at 37° C.)?
**A.** Its value is 6.6 nM.

**Q.** And the “Concentration (nM) of Remaining Main Peak by RP-HPLC after Incubation of Peptide with Purified Porcine DPP-IV” value ([2]; Time = 24 hours at 37° C.)?
**A.** The value was 4.1 nM.

**Q.** For “HLDAVFTDNYTRLRKQVAAKKYLQSIKNKRYGGPSSGAPPPS [Agonist P46]”, which EC50 [1] is on record?
**A.** The EC50 was > 1000 nM.

**Q.** What does the source list for `CCCCCC(=O)N[C@@H](Cc1c[nH]cn1)C(=O)N[C@@H](CO)C(=O)N[C@@H](CC(=O)O)C(=O)N[C@@H](C)C(=O)N[C@H](C(=O)N[C@@H](Cc1ccccc1)C(=O)N[C@H](C(=O)N[C@@H](CC(=O)O)C(=O)N[C@@H](CC(N)=O)C(=O)N[C@@H](Cc1ccc(O)cc1)C(=O)N[C@H](C(=O)N[C@@H](CCCNC(=N)N)C(=O)N[C@@H](CC(C)C)C(=O)N[C@@H](CCCNC(=N)N)C(=O)N[C@@H](CCCCN)C(=O)N[C@@H](CCC(N)=O)C(=O)N[C@H](C(=O)N[C@@H](C)C(=O)N[C@@H](C)C(=O)NC(C)(C)C(=O)N[C@@H](CCCCN)C(=O)N[C@@H](Cc1ccc(O)cc1)C(=O)N[C@@H](CC(C)C)C(=O)N[C@@H](CCC(N)=O)C(=O)N[C@@H](CO)C(=O)N[C@H](C(=O)N[C@@H](CCCCN)C(=O)N[C@@H](CC(N)=O)C(=O)N[C@@H](CCCCN)C(=O)N[C@@H](CCCNC(=N)N)C(=O)N[C@@H](Cc1ccc(O)cc1)C(=O)NCC(=O)NCC(=O)N1CCC[C@H]1C(=O)N[C@@H](CO)C(=O)N[C@@H](CO)C(=O)NCC(=O)N[C@@H](C)C(=O)N1CCC[C@H]1C(=O)N1CCC[C@H]1C(=O)N1CCC[C@H]1C(=O)N[C@@H](CO)C(=O)O)[C@@H](C)CC)C(C)C)[C@@H](C)O)[C@@H](C)O)C(C)C` [Agonist P169]?
**A.** EC50 [3]: 0.14 nM; IC50 [4]: 0.26 nM; Rat Serum Stability (estimated purity in % after 18 hours) [5]: 0.40%; IC50 [6]: 240 nM; IC50 [7]: 482 nM; EC50 [8]: 0.07 nM

**Q.** Which EC50 [1] does the source give for “HSDTVFTDNYTRLRKQVAAKKYLQSIKNKRYGGPSSGAPPPS [Agonist P54]” here?
**A.** The EC50 was > 1000 nM.

**Q.** For “HSDAVFTDNYTRLRKQVAAKKYLQSIKN[hArg]RYGGPSSGAPPPS [Agonist P24]”, which IC50 [4] is on record?
**A.** The IC50 was 1.97 nM.

**Q.** And the IC50 [6]?
**A.** The IC50 was 198 nM.

**Q.** And the EC50 [1]?
**A.** Its EC50 is > 100 nM.

**Q.** Which EC50 [1] does the source give for “HSDAFFTDNYTRLRKQVAAKKYLQSIKNKRYGGPSSGAPPPS [Agonist P58]” here?
**A.** Its EC50 is 35.6 nM.

**Q.** For “HSDAWFTDNYTRLRKQVAAKKYLQSIKNKRYGGPSSGAPPPS [Agonist P69]”, which EC50 [1] is on record?
**A.** Its EC50 is 104 nM.

**Q.** For “HSDFVFTDNYTRLRKQVAAKKYLQSIKNKRYGGPSSGAPPPS [Agonist P52]”, which EC50 [1] is on record?
**A.** Its EC50 is > 1000 nM.
